Results from ChEMBL document CHEMBL4400526, “Design, synthesis and anti-bacterial studies of piperazine derivatives against drug resistant bacteria” (2019).
Converted amounts (≈) assume the structure as drawn. The source made the active and inactive calls. No cut-off for these calls is given here.

How the values were obtained:
Format in all cases: functional
Klebsiella pneumoniae = test: Antibacterial activity against Klebsiella pneumoniae ATCC 1705 measured after overnight incubation; conditions: ATCC BAA-1705
Streptococcus pyogenes = test: Antibacterial activity against Streptococcus hemolyticus clinical isolates measured after overnight incubation
Staphylococcus aureus [1] = test: Antibacterial activity against Staphylococcus aureus ATCC 6538 measured after overnight incubation
Staphylococcus aureus [2] = test: Antibacterial activity against methicillin-resistant Staphylococcus aureus clinical isolates measured after overnight incubation
Pseudomonas aeruginosa [3] = test: Antibacterial activity against Pseudomonas aeruginosa ATCC 15442 measured after overnight incubation
Escherichia coli [4] = test: Antibacterial activity against Escherichia coli clinical isolates measured after overnight incubation
Escherichia coli [5] = test: Antibacterial activity against Escherichia coli ATCC 25922 measured after overnight incubation
Pseudomonas aeruginosa [6] = test: Antibacterial activity against Pseudomonas aeruginosa clinical isolates measured after overnight incubation
Bacillus spizizenii = test: Antibacterial activity against Bacillus subtilis ATCC 6633 measured after overnight incubation
Staphylococcus aureus [7] = test: Antibacterial activity against Staphylococcus aureus
Escherichia coli [8] = test: Antibacterial activity against Escherichia coli
[9] = tested on: Staphylococcus epidermidis; test: Antibacterial activity against Staphylococcus epidermidis

Structure (SMILES) | MIC (Klebsiella pneumoniae) | MIC (Streptococcus pyogenes) | MIC (Staphylococcus aureus [1]) | MIC (Staphylococcus aureus [2]) [µM] | MIC (Pseudomonas aeruginosa [3]; read-out: MIC) [µM] | MIC (Escherichia coli [4]) | MIC (Escherichia coli [5]; read-out: MIC) [µM] | MIC (Pseudomonas aeruginosa [6]) | MIC (Bacillus spizizenii) | MIC (Pseudomonas aeruginosa [3]) | MIC (Escherichia coli [5]) | MIC50 (Staphylococcus aureus [7]) [µg/mL] | MIC50 (Escherichia coli [8]) [µg/mL] | MIC50 [9] [µg/mL]
NS(=O)(=O)c1ccc(NCN2CCN(c3cc4c(cc3F)c(=O)c(C(=O)O)cn4C3CC3)CC2)cc1 | 1.9 µM (≈ 0.98 µg/mL) | 7.7 µM | 0.9 µM | 7.7 (≈ 3.97 µg/mL) | 1.9 (≈ 0.98 µg/mL) | 7.7 µM | 1.9 (≈ 0.98 µg/mL) | 7.7 µM | 0.9 µM | – | – | – | – | –
O=C(O)c1cn(C2CC2)c2cc(N3CCNCC3)c(F)cc2c1=O [CIPROFLOXACIN] | – | – | 8 µg/mL | – | – | – | – | – | 8 µg/mL | – | – | – | – | –
O=C(NNCN1CCNCC1)c1ccncc1 | inactive | – | inactive | – | – | – | – | – | inactive | inactive | inactive | – | – | –
NCC1(CC(=O)O)CCCCC1 | – | – | inactive | – | – | – | – | – | inactive | inactive | inactive | – | – | –
NS(=O)(=O)c1ccc(NCN2CCNCC2)cc1 | inactive | – | inactive | – | – | – | – | – | inactive | inactive | inactive | – | – | –
CC[C@H]1OC(=O)[C@H](C)[C@@H](O[C@H]2C[C@@](C)(OC)[C@@H](O)[C@H](C)O2)[C@H](C)[C@@H](O[C@@H]2O[C@H](C)C[C@H](N(C)C)[C@H]2O)[C@](C)(O)C[C@@H](C)/C(=N\OCOCCOC)[C@H](C)[C@@H](O)[C@]1(C)O [ROXITHROMYCIN] | – | – | 0.039 µM | – | – | – | – | – | – | – | – | – | – | –
O=C(O)c1ccc(NCN2CCN(c3cc4c(cc3F)c(=O)c(C(=O)O)cn4C3CC3)CC2)cc1 | 16.6 µM (≈ 7.98 µg/mL) | 8.3 µM | 16.6 µM | 66.5 (≈ 32 µg/mL) | 8.3 (≈ 3.99 µg/mL) | 8.3 µM | 8.3 (≈ 3.99 µg/mL) | 8.3 µM | 16.6 µM | – | – | – | – | –
Nc1ccc(C(=O)O)cc1 | – | – | inactive | – | – | – | – | – | inactive | inactive | inactive | – | – | –
Nc1ccc(S(N)(=O)=O)cc1 | – | – | inactive | – | – | – | – | – | inactive | inactive | inactive | – | – | –
COc1cc(Cc2cnc(N)nc2N)cc(OC)c1OCCN1CCN(c2cc3c(cc2F)c(=O)c(C(=O)O)cn3C2CC2)CC1 | – | – | – | – | – | – | – | – | – | – | – | 0.5 (≈ 0.789 µM) | 1 (≈ 1.58 µM) | 0.5 (≈ 0.789 µM)
O=C(O)CC1(CNCN2CCN(c3cc4c(cc3F)c(=O)c(C(=O)O)cn4C3CC3)CC2)CCCCC1 | 15.5 µM (≈ 7.98 µg/mL) | 62.1 µM | – | – | 15.5 (≈ 7.98 µg/mL) | 7.7 µM | 15.5 (≈ 7.98 µg/mL) | 7.7 µM | 62.1 µM | – | – | – | – | –
O=C(O)c1ccc(NCCN2CCN(c3cc4c(cc3F)c(=O)c(C(=O)O)cn4C3CC3)CC2)cc1 | 2 µM (≈ 0.989 µg/mL) | – | 2 µM | 16.1 (≈ 7.96 µg/mL) | 1 (≈ 0.495 µg/mL) | 1 µM | 1 (≈ 0.495 µg/mL) | 1 µM | 2 µM | – | – | – | – | –
O=C(NNCCN1CCN(c2cc3c(cc2F)c(=O)c(C(=O)O)cn3C2CC2)CC1)c1ccncc1 | 4 µM (≈ 1.98 µg/mL) | 8 µM | 1 µM | 4 (≈ 1.98 µg/mL) | 4 (≈ 1.98 µg/mL) | 8 µM | 4 (≈ 1.98 µg/mL) | 8 µM | 1 µM | – | – | – | – | –
O=C(O)c1ccc(NCN2CCNCC2)cc1 | 1090 µM (≈ 256 µg/mL) | – | 272 µM | – | – | – | – | – | 272 µM | 1090 µM (≈ 256 µg/mL) | 1090 µM (≈ 256 µg/mL) | – | – | –
O=C(NNCN1CCN(c2cc3c(cc2F)c(=O)c(C(=O)O)cn3C2CC2)CC1)c1ccncc1 | 7.7 µM (≈ 3.7 µg/mL) | 8.3 µM | 4.1 µM | 2 (≈ 0.961 µg/mL) | 7.7 (≈ 3.7 µg/mL) | 33.2 µM | 7.7 (≈ 3.7 µg/mL) | 33.2 µM | 7.7 µM | – | – | – | – | –
NNC(=O)c1ccncc1 | – | – | inactive | – | – | – | – | – | inactive | inactive | inactive | – | – | –
C=CC1=C(C(=O)O)N2C(=O)[C@@H](NC(=O)/C(=N\OCC(=O)O)c3csc(N)n3)[C@H]2SC1 [CEFIXIME] | – | 0.25 µg/mL | – | – | 0.06 (≈ 0.0272 µg/mL) | 0.75 µg/mL | 0.06 (≈ 0.0272 µg/mL) | 0.5 µg/mL | 0.06 µM | – | – | – | – | –
O=C(O)CC1(CNCCN2CCN(c3cc4c(cc3F)c(=O)c(C(=O)O)cn4C3CC3)CC2)CCCCC1 | 7.5 µM (≈ 3.96 µg/mL) | – | 30.2 µM | 30.2 (≈ 16 µg/mL) | 15.1 (≈ 7.98 µg/mL) | 3.7 µM | 7.5 (≈ 3.96 µg/mL) | 3.7 µM | 30.2 µM | – | – | – | – | –
NS(=O)(=O)c1ccc(NC(=O)CC2(CNCN3CCN(c4cc5c(cc4F)c(=O)c(C(=O)O)cn5C4CC4)CC3)CCCCC2)cc1 | 0.7 µM (≈ 0.468 µg/mL) | – | 1.4 µM | 0.74 (≈ 0.495 µg/mL) | 0.7 (≈ 0.468 µg/mL) | 0.74 µM | 0.7 (≈ 0.468 µg/mL) | 0.74 µM | 1.4 µM | – | – | – | – | –
NS(=O)(=O)c1ccc(NCCN2CCN(c3cc4c(cc3F)c(=O)c(C(=O)O)cn4C3CC3)CC2)cc1 | 7.5 µM (≈ 3.97 µg/mL) | 3.7 µM | 3.7 µM | 3.7 (≈ 1.96 µg/mL) | 7.5 (≈ 3.97 µg/mL) | 7.5 µM | 7.5 (≈ 3.97 µg/mL) | 7.5 µM | 3.7 µM | – | – | – | – | –
COc1nc(NNC(=O)c2ccncc2)nc(N2CCNCC2)n1 | 197 µM (≈ 65 µg/mL) | – | 49.2 µM | – | 98.4 (≈ 32.5 µg/mL) | – | 98.4 (≈ 32.5 µg/mL) | – | 49.2 µM | – | – | – | – | –
O=C(O)CC1(CNCN2CCNCC2)CCCCC1 | 238 µM (≈ 64 µg/mL) | – | 119 µM | – | 238 (≈ 64 µg/mL) | – | 238 (≈ 64 µg/mL) | – | 119 µM | – | – | – | – | –
